Laboratory results: patent US20030170176A1, “Individualization of therapy with antipsychotics” (McGill University, priority 2001, published 2003)

Tested on: AAMU-Ab
Assay: Competitive antigen ELISA, cross-reactivity of AAMU-Ab
Type: binding, rabbit
Conditions: 0 = absence of inhibition or inhibition no higher than 40% at highest concentration tested (5 × 10^−3 M)
Protocol: Competitive Antigen ELISA
Buffers and water without additives are filtered through millipore filters and kept for 1 week. BSA, antibodies, Tween™ 20 and horse radish peroxidase conjugates are added to these buffers and water just prior to use. Urine samples are usually collected 4 hours after drinking a cup of coffee (instant or brewed with approximately 100 mg of caffeine per cup) and stored at −80° C. The urine samples are diluted 10 times with sodium phosphate buffer (620 mosm, pH 7.50) and are subsequently diluted with water to give concentrations of AAMU and 1× no higher than 3×10^−6 M in the ELISA. All the pipettings are done with an eight-channel pipette, except those of the antibody and sample solutions. Starting with the last well, 100 μL of a carbonate buffer (100 mM, pH 9.6) containing 2.5 μg mL^−1 antibodies are added to each well. After 90 min. at room temperature, the wells are washed three times with […] of TPB: isotonic sodium phosphate buffer (310 mosm, pH 7.50) containing 0.05% Tween™ 20.
After the initial wash, unoccupied sites are blocked by incubation for 90 min. at room temperature with 100 μL TBP containing 3% BSA. The wells are washed four times with 100 μL TPB. […] The microplate is gently shaken with an orbital shaker at room temperature for 3-4 hours. […]

Q: How did the “% Cross-Reaction AAMU-Ab” value turn out when O=c1[nH]c(=O)c2[nH]cnc2[nH]1 [Xanthine] was run?
A: The value was 0a %.
